Laboratory results reported in US6838415B1, “Substituted benzoylisoxazoles and the use thereof as herbicides” (Bayer Aktiengesellschaft, priority 1999, dated 2005).

Columns and labels:
[1] = logP by HPLC on reverse-phase column (C 18), acidic range; format: physicochemical; details: for logP a): acidic range: 0.1% aqueous phosphoric acid/acetonitrile gradient, HPLC C 18, 43° C.; for logP: HPLC reverse-phase column (C 18), 43° C., acidic range: 0.1% aqueous phosphoric acid, acetonitrile; data labelled a)
Procedure: (§1) The logP values given in Table 1 were determined in accordance with EE Directive 79/831 Annex V.A8 by HPLC (High Performance Liquid Chromatography) using a reverse-phase column (C 18). Temperature: 43° C. (a) Mobile phases for the determination in the acidic range: 0.1% aqueous phosphoric acid, acetonitrile; linear gradient from 10% acetonitrile to 90% acetonitrile—the corresponding data in Table 1 are labelled ^a). Calibration was carried out using unbranched alkan-2-ones (with from 3 to 16 carbon atoms) whose logP values are known (determination of the logP values by the retention times using linear interpolation between two successive alkanones). The logP values given in Table 3 were determined in accordance with EEC Directive 79/831 Annex V.A8 by HPLC (High Performance Liquid Chromatography) using a reverse-phase column (C 18). Temperature: 43° C. (a) Mobile phases for the determination in the acidic range: 0.1% aqueous phosphoric acid, acetonitrile; linear gradient from 10% acetonitrile to 90% acetonitrile—the corresponding data in Table 3 are labelled ^a). Calibration was carried out using unbranched alkan-2-ones (with from 3 to 16 carbon atoms) whose logP values are known (determination of the logP values by the retention times using linear interpolation between two successive alkanones).

[2] = logP by HPLC on reverse-phase column (C 18), neutral range; format: physicochemical; details: neutral range: 0.01 molar aqueous phosphate buffer/acetonitrile gradient, HPLC C 18, 43° C.
Procedure: as §1, with “(b)” for “(a)”, “neutral” for “acidic”, “0.01 molar” for “0.1%”, “phosphate buffer solution,” for “phosphoric acid,”, “^b).” for “^a).”

weeds [3] = experiment: Pre-emergence test, action against weeds; format: in vivo; details: soil sprayed about 24 hours after sowing, rated after three weeks
Procedure: (§2) Pre-emergence Test [table] To produce a suitable preparation of active compound, 1 part by weight of active compound is mixed with the stated amount of solvent, the stated amount of emulsifier is added and the concentrate is diluted with water to the desired concentration. Seeds of the test plants are sown in normal soil. After about 24 hours, the soil is sprayed with the preparation of active compound such that the particular amount of active compound desired is applied per unit area. The concentration of the spray liquor is chosen so that the particular amount of active compound desired is applied in 1000 liters of water per hectare. After three weeks, the degree of damage to the plants is rated in % damage in comparison to the development of the untreated control. The figures denote: [table]

[4] = system: crop plants, such as, for example, maize; experiment: Pre-emergence test, tolerance by crop plants; format: in vivo; details: rated after three weeks
Procedure: as §2

weeds [5] = experiment: Post-emergence test, activity against weeds; format: in vivo; details: test plants 5-15 cm sprayed, rated after three weeks
Procedure: (§3) Post-emergence Test [table] To produce a suitable preparation of active compound, 1 part by weight of active compound is mixed with the stated amount of solvent, the stated amount of emulsifier is added and the concentrate is diluted with water to the desired concentration. Test plants which have a height of 5-15 cm are sprayed with the preparation of active compound such that the particular amounts of active compound desired are applied per unit area. The concentration of the spray liquor is chosen so that the particular amounts of active compound desired are applied in 1000 l of water/ha After three weeks, the degree of damage to the plants is rated in % damage in comparison to the development of the untreated control. The figures denote: [table]

[6] = system: crop plants, such as, for example, wheat; experiment: Post-emergence test, tolerance by crop plants; format: in vivo; details: rated after three weeks
Procedure: as §3

Row | Structure (SMILES) | logP a) [1] | logP [1] | other results
1 | COC(=O)c1noc(C2CC2)c1C(=O)c1ccc(Br)cc1Cn1nc(C(F)(F)F)n(C)c1=O [Example 5] | (IA) logP = 3.50^a) | – | –
2 | COc1c(C(=O)c2cnoc2C2CC2)ccc(Cl)c1CN1CCN(C)C1=O [ID-2] | logP = 2.46^a) | – | –
3 | COC(=O)c1ccc(C(F)(F)F)cc1CN1C(=O)c2ccccc2S1(=O)=O [VII-122] | – | logP = 3.29^a) | –
4 | CCOc1nn(Cc2cc(C(F)(F)F)ccc2C(=O)c2c(C(=O)OC)noc2C2CC2)c(=O)n1C [Example 6] | (IA) logP = 3.32^a) | – | –
5 | CSc1nn(Cc2cc(C(F)(F)F)ccc2C(=O)c2cnoc2C2CC2)c(=O)n1C [Example 2, (5-cyclopropyl-isoxazol-4-yl)-[2-(4-methyl-3-methylthio-5-oxo-4,5-dihydro-[1,2,4]-triazol-1-yl-methyl)-4-trifluoromethyl-phenyl]-methanone] | – | – | chromatographic logP ([1]; reverse-phase HPLC column (C 18), pH=2.3, read-out: logP (determined at pH=2.3)): 2.94
6 | COC(=O)c1noc(C2CC2)c1C(=O)c1ccc(C(F)(F)F)cc1Cn1nc(SC)n(C)c1=O [Example 7] | (IA) logP = 3.22^a) | – | –
7 | COC(=O)c1ccc(C(F)(F)F)cc1Cn1c(=O)oc2ccccc21 [VII-121] | – | logP = 3.37^a) | –
8 | CCOn1c(CC)nn(Cc2cc(Br)ccc2C(=O)c2c(C(=O)OC)noc2C2CC2)c1=O [Example 4] | – | – | logP b) [2]: (IA) logP = 3.36^b); action against weeds (degree of damage) (weeds [3]): strong action against weeds; tolerance by crop plants [4]: tolerated well; activity against weeds (degree of damage) (weeds [5]): very strong activity against weeds; tolerance by crop plants [6]: tolerated well
9 | COC(=O)c1ccc(C(F)(F)F)cc1Cn1nnc2ccccc2c1=O [VII-123] | – | logP = 3.26^a) | –
10 | CN1CCN(Cc2c(Cl)ccc(C(=O)c3cnoc3C3CC3)c2Cl)C1=O [ID-1] | logP = 2.48^a) | – | –
11 | CCOC(=O)c1ccc(C(F)(F)F)cc1Cn1nc(OC)n(C2CC2)c1=O [VII-91] | – | logP = 3.08^a) | –
12 | CCOc1nn(Cc2cc(Br)ccc2C(=O)c2c(C(=O)OC)noc2C2CC2)c(=O)n1C [Example 3] | (IA) logP = 3.15^a) | – | action against weeds (degree of damage) (weeds [3]): strong action against weeds; tolerance by crop plants [4]: tolerated well; activity against weeds (degree of damage) (weeds [5]): very strong activity against weeds; tolerance by crop plants [6]: tolerated well
